# Results reported in patent publication US8557300B2 (priority 2005, dated 2013).
# Where two headings read alike, the source gives them in different places.
# Legend:
# [1] = tested on: sodAsodB mutant of strain PAO1; details: aerobic conditions, LB pH 6.5, 15 mM NO2^−
# Protocol: CFU are measured daily and plotted in logarithmic scale. For aerobic samples, strains are grown with vigorous shaking (300 rpm).
# mucoid strain FRD1 = details: FRD1, CF ultrasupernatants pH 6.24, 15 mM NO2^−
# Protocol: CFU are determined (n=3) and plotted as the X±SEM vs. time.
# Purulent secretions are harvested from the airways of CF lungs which physicians remove at the time of lung transplantation.
# [2] = tested on: mucoid FRD1 and nonmucoid FRD1/pmucA in mouse lungs
# Protocol: CD1 mice are infected with FRD1 or FRD1/pmucA.
# CD1 mice are infected with ˜10^6 FRD1 or FRD1/pmucA entrapped in agar beads intratracheally. […] On the fifth day, the mice are sacrificed and the viable bacteria from the lung homogenates are enumerated.
# The efficacy of HNO2 to kill strain FRD1 in a PA chronic lung infection model is then determined.
# FRD1 in mouse lungs = details: FRD1-infected mice, daily 15 mM NO2^− pH 6.5 for 16 days
# [3] = tested on: FRD1 and FRD1/pmucA in CD1 mouse airways
# [4] = tested on: mucoid CF clinical isolates of PA
# Protocol: (§1) The CFU in the inoculum versus that after a 4 day anaerobic incubation are determined.
# (§2) The PA strains used in this study include laboratory strains PAO1 (5), CF isolate FRD1 (6), other sputum isolates from CF patients, and sixteen mucoid isolates. Complementation of the mucA mutant allele of strain FRD1 is achieved by transformation with ptacmucA. Aerobic starter cultures are grown in L-broth (10 g tryptone, 5 g NaCl and 5 g yeast extract, per liter) at 37° C. […] To support anaerobic respiration, KNO3 and/or NaNO2 are added to the medium. The pH of the medium is adjusted with 100 mM sodium phosphate (for pH 6.5) or 100 mM sodium acetate (for pH 5.5). To enumerate viable cells in cultures, colony forming units (CFU) are determined.
# [5] = tested on: PA mucA, mucB, mucD, algW, algD, algT(U) mutant strains and clinical isolates
# Protocol: Other than mucA, the aforementioned genes are the only reported loci that, when inactivated, allow for mucoid conversion in PA (25-27).
# as §2
# [6] = tested on: mucoid FRD1 and nonmucoid FRD1/pmucA; details: 15 mM NO2^−, pH 6.5, anaerobic, 5 days
# Protocol: The black bars indicate non-mucoid FRD1/pmucA and the gray bars indicate mucoid FRD1.
# as §2
# [7] = tested on: PA strains isolated from 5 different young CF patients; details: 15 mM NO2^−
# Protocol: as §2
# mucoid FRD1 [8] = tested on: mucoid FRD1
# Protocol: as §2
# [9] = tested on: nonmucoid PAO1, mucoid FRD1, nonmucoid FRD1/pmucA; details: pH 6.5, anaerobic
# Protocol: The colony forming units (CFU) are enumerated each day and plotted.
# Based upon the slightly acidic pH measurements of segmental and subsegmental bronchi from CF transplant patients, discussed above, well-characterized P. aeruginosa strains are grown at pH 6.5 under strict anaerobic conditions.
# as §2
# FRD1 and FRD1/pmucA [10] = tested on: FRD1 and FRD1/pmucA
# Protocol: The FRD1 and FRD1/pmucA are seeded on LB agar and buffered at the indicated pH.
# Plates are incubated for 2 days under anaerobic conditions.
# [11] = tested on: anaerobic biofilms of FRD1 and FRD1/pmucA
# Protocol: For the confocal laser microscopic analysis of anaerobic FRD1 biofilms, live cells are stained with syto-9, and dead cells are stained with propidium iodide.
# An 8-chambered coverslip system (Lab-Tek Inc., Campbell, Calif.) is used for biofilm architecture and viability experiments. […] Bacterial viability staining and image acquisition are accomplished as described previously by Sparkman et al.
# Anaerobic biofilms of strains FRD1 and FRD1/pmucA are grown for 1 day in media containing NO3^−, which supports anaerobic respiration.
# [12] = tested on: PA sputum isolates CF-1 to CF-5; details: CF-1 to CF-4, 15 mM NO2^−, pH 6.5, anaerobic, 1 day
# Excerpt: The effect of HNO2 on the killing of sputum isolates from CF patients is also monitored.
# [13] = tested on: CF airway epithelial cultures
# Protocol: Transepithelial short circuit current (Isc in μA/Cm^2) is measured to monitor any change in bioelectric properties.
# A primary culture of human airway epithelial cells is performed. […] LDH is measured using a commercially available spectrophotometric assay kit (Biovision Research Products, Mountain View, Calif.) according to the manufacturer's instructions. Then, the bioelectric properties of cultured airway epithelial cells are analyzed.
# [14] = apical, cultured CF airway epithelia; preliminary studies
# Protocol: (§3) For experiments measuring transepithelial water flux, the primary cultures of airway epithelia are cultured in a specially humidified incubator, to prevent evaporative water loss from the culture surface. […] BD concentration is measured optically and IL-8 concentrations in basolateral media are measured using commercially available antibody pairs (R&D Systems, Minneapolis, Minn.) according to the manufacturer's instructions. […] At various time points, aliquots of apical liquid are aspirated and stored at −20° C.
# [15] = tested on: CF airway epithelial cultures; details: 15 mM NO2^−, 24 hr
# Protocol: as §3
# [16] = tested on: primary cultures of CF airway epithelia; details: 15 mM NO2^−, 24 hr
# Protocol: as §3
# Staphylococcus aureus = details: slightly acidified
# Excerpt: The current last resort for treatment against these antibiotic resistant strains is with vancomycin.
# [17] = tested on: mucoid FRD1 and nonmucoid FRD1/pmucA; details: pH 6.5/15 mM NO2^− versus pH 5.5/[…] NO2^−
# nor CB mutant of FRD1 = details: pH 6.5
# [18] = tested on: human CF airway epithelium; details: up to 20 times the dose required to kill mucoid mucA mutant PA, 2 μl apical, pH 6.5, 24 hr
# FRD1 and FRD1/pmucA [19] = experiment: NO gas exposure of bacterial suspension (FIG. 10); assay type: cell-based, Pseudomonas aeruginosa; details: 380 nM solution concentration of NO, LB pH 6.5, 24 hr anaerobic
# Protocol: A NO gas at 333 ppm is balanced with pure argon and continuously bubbled for 24 hr anaerobically.
# Nitric oxide (NO) gas (200 ppm, 0.4 μM) balanced with Ar is anaerobically delivered to a water-jacketed chamber in which ˜10^8 bacteria/ml are suspended. […] Gas flow is constantly maintained at 3 ml/min. Pure Ar gas is used as a control.
# [20] = tested on: mucoid CF clinical isolates of PA; assay type: cell-based, Pseudomonas aeruginosa; details: isolates marked by black arrows in FIG. 6
# Protocol: as §1
# mucoid FRD1 [21] = experiment: Protection of mucoid FRD1 from acidified NO2^− by NO scavengers (FIG. 9); assay type: cell-based, Pseudomonas aeruginosa; details: millimolar concentrations (5 mM); LB pH 6.5, 15 mM NO2^−
# Excerpt: Line 3 is the FRD1 control bacteria alone.
molecule,measurement,setting,value
"O=NO [HNO2, nitrous acid]",sensitivity of sodAsodB mutant,[1],not sensitive
same,speed of killing compared with L-broth,mucoid strain FRD1,killed faster
same,decrease of mucoid FRD1 in lung,[2]; pH 5.5,> 3 logs
same,decrease of mucoid FRD1 in lung,"[2]; pH 6.5, 15 mM NO2^− intranasal",> 2 logs
same,decrease of nonmucoid FRD1/pmucA in lung,[2]; pH 6.5 and pH 5.5,"but not nonmucoid FRD1/pmucA, are decreased"
same,bacteria in lung after long-term treatment,FRD1 in mouse lungs,no bacteria detected
same,competitive index,"[3]; complemented strain FRD1/pmucA, 6 days",~1.0
same,competitive index,[3]; {},~0.2
same,HNO2 concentration,pH 6.5/15 mM NO2^− and pH 5.5/[…] NO2^−,~10 µM
same,HNO2 concentration,pH 6.5 and 15 mM NO2^−,10.62 µM
"O=NO [NO2^−, nitrite]",mucA mutant mucoid isolates showing increased susceptibility,"[4]; 15 mM NO2^−, pH 6.5, anaerobic",78 out of 82
same,"number of mucoid isolates with wild-type mucA allele resistant, out of 12",[4]; acidified NO2^−,8
same,sensitivity of 4 antibiotic-resistant strains,[4]; anaerobic treatment with acidified NO2^−,still sensitive
same,share of isolates killed by more than 2 logs,"[4]; mucA mutant mucoid isolates, 15 mM NO2^−, pH 6.5, anaerobic",74%
same,LD50 for sensitive strains compared with FRD1,[5],almost identical to that for FRD1
same,sensitivity of FRD1 derived nonmucoid mutants ΔalgD and ΔalgT(U),[5],equally sensitive
same,sensitivity of PDO300 (PAO1 mucA22),[5],sensitive
same,"sensitivity of mucB, mucD and algW mutants of PAO1",[5],not sensitive
same,viability of nonmucoid FRD1/pmucA after mixed incubation,[6],maintains viability
same,CFU of mucoid FRD1 after mixed incubation,[6]; three bacterial ratios,< 10^3 CFU/ml
same,"killing of mucoid variants of patients A, B, C and D",[7],1.9-3.1 logs
same,LD50,"mucoid FRD1 [8]; mucoid FRD1, pH 6.5, 24 hr anaerobic",~3 mM
same,bacteria killed,mucoid FRD1 [8]; pH 6.5,Ninety to ninety-five
same,killing on long-term exposure,mucoid FRD1 [8]; pH 6.5,all organisms are killed
same,viability of nonmucoid strains PAO1 and FRD1/pmucA,"[9]; 15 mM NO2^−, 4 day incubation",remained viable
same,rate of killing,"[9]; mucoid FRD1, 15 mM NO2^−",90 % per day
same,killing versus pH,"FRD1 and FRD1/pmucA [10]; FRD1, filter disc 10 μl of 1 M NO2^−, anaerobic 48 hours",more effectively at lower pH
same,killing versus pH,"FRD1 and FRD1/pmucA [10]; FRD1/pmucA, pH values between 6.0 and 7.5",little or no killing
same,biofilm response,"[11]; FRD1/pmucA biofilm, acidified NO2^−",resistance to acidified NO2^− is clearly evident
same,death of biofilm organisms,"[11]; FRD1 biofilm, 15 mM NO2^−, pH 6.5, 2 days",nearly complete death of biofilm organisms
same,biofilm structure and cell viability relative to control,"[11]; FRD1 biofilm, 15 mM NO2^−, pH 7.5, 2 days",no difference in biofilm structure and cell viability
same,viability of mucoid mucA mutant sputum isolates,[12],a sharp decrease in viability
same,amiloride-sensitive Isc,"[13]; 15 mM NO2^− treated (control 15.4±1.4, p=0.92)",15.7±1.7 μA/cm^2
same,UTP-activated Isc,"[13]; 15 mM NO2^− treated (control 17.7±3.0, p=0.92)",18.1±3.3 μA/cm^2
same,basal transepithelial short circuit current (Isc),[13]; NO2^− at varying concentrations,not affected
same,half-life of NO2^− on CF airway surfaces,[14],~5 h
same,transepithelial water flux (Jv),[15],does not alter transepithelial water flux
same,immune response as release of IL-8,[16],does not cause activation of an immune response
same,susceptibility of Staphylococcus aureus incl. MRSA,Staphylococcus aureus,exhibited susceptibility
same,killing of mucoid bacteria at identical HNO2 concentrations,[17],equal killing
same,sensitivity of norCB mutant relative to FRD1,nor CB mutant of FRD1,~10 fold
same,in vitro sensitivity of organisms recovered from mouse airways after exposure,"[2]; mouse, in vivo",still sensitive
same,cytotoxicity by lactate dehydrogenase release,[18],no cytotoxicity
"O=[N+]([O-])O [NO3^−, nitrate, reference compound]","viability patterns of FRD1, PAO1 and FRD1/pmucA",[9]; 15 mM NO3^−,no difference in viability patterns is observed
"[N]=O [NO, nitric oxide]",killing of FRD1 by NO/Ar gas mixture,FRD1 and FRD1/pmucA [19],is killed
NCC[C@H](O)C(=O)N[C@@H]1C[C@H](N)[C@@H](O[C@H]2O[C@H](CN)[C@@H](O)[C@H](O)[C@H]2O)[C@H](O)[C@H]1O[C@H]1O[C@H](CO)[C@@H](O)[C@H](N)[C@H]1O [amikacin],resistance of 4 clinical isolates,[20],highly resistant
CC1(C)N([O])C(c2ccc(C(=O)O)cc2)=[N+]([O-])C1(C)C [carboxy-PTIO],protection of FRD1 from killing by acidified NO2^−,mucoid FRD1 [21],strong protective effect
CC(C)(O/N=C(\C(=O)N[C@@H]1C(=O)N2C(C(=O)[O-])=C(C[n+]3ccccc3)CS[C@H]12)c1csc(N)n1)C(=O)O [ceftazidime],resistance of 4 clinical isolates,[20],highly resistant
NC[C@H]1O[C@H](O[C@H]2[C@H](O)[C@@H](O[C@H]3O[C@H](CO)[C@@H](O)[C@H](N)[C@H]3O)[C@H](N)C[C@@H]2N)[C@H](N)C[C@@H]1O [tobramycin],resistance of 4 clinical isolates,[20],highly resistant
gentamycin,resistance of 4 clinical isolates,[20],highly resistant
